Legend:
[1] = test system: H1437 NRF2-ARE-Fluc stable cell line; experiment: H1437 Nrf2 assay: NRF2-ARE firefly luciferase reporter gene assay; type: cell-based; settings: Homo sapiens, NCI-H1437, H1437 NRF2-ARE-Fluc stable cell line; read-out: Potency of inhibition, H1437
Excerpt: H1437 is another NSCLC cell line with LOF Keap1 activity and constitutive translocation of NRF2 into the nucleus. A firefly luciferase reporter construct driven by a minimal promoter of NRF2-specific ARE is stably expressed in the H1437 cells. This cell line was used as a confirmation assay to make sure hits identified from primary screening and that passed counterscreen assays worked in different cell types with a constitutively active NRF2 pathway (deficiency in Keap1).
This assay was very similar to the primary assay except that the cell line was changed. […] The final concentration of DMSO was maintained at 0.46%. Control compounds Budesonide and Staurosporine were both added at a concentration of 2 mM and Budesonide was also added as a 1:10 titration, starting at 200 μM, to achieve dose-response. After an 18-24 hour incubation at 37° C., 95% humidity, and 5% CO2, 1 μL of 5× CellTiter-Fluor non-lytic cell viability assay reagent (Promega, Madison Wis.) was added into the each well of the plates. The plates were then incubated for 30 minutes at room temperature before they were read on a ViewLux plate imager (Perkin Elmer, Waltham Mass.) using an excitation wavelength of 405 nm and an emission wavelength of 525 nm.
(§1) Representative compounds were assayed to assess the potency of inhibition in an A549 NRF2-ARE-Fluc stable cell line (A549 Nrf2 assay), in an H838 NRF2-ARE-Fluc stable cell line (H838 Nrf2 assay), and in an H1437 NRF2-ARE-Fluc stable cell line (H1437 Nrf2 assay) (see Table 3).

[2] = test system: A549 NRF2-ARE-Fluc stable cell line; experiment: A549 Nrf2 assay: NRF2-ARE firefly luciferase reporter gene assay; type: cell-based; settings: Homo sapiens, read-out: Potency of inhibition, A549
Excerpt: A549, the parental cell line, is a non-small-cell lung cancer (NSCLC) cell line with loss-of-function (LOF) Keap1 activity, thus NRF2 transcription factor constitutively translocates into the nucleus to activate the expression of downstream target genes of NRF2. A firefly luciferase reporter (Fluc) construct driven by a minimal promoter of NRF2-specific anti-oxidant responsive element (ARE) is stably expressed in the A549 cells. Compounds that reduce the translocation of NRF2 into the nucleus or prevent the interaction between NRF2 and ARE will lead to a decrease in luciferase activity.
The final concentration of DMSO was maintained at 0.46%. Control compounds Budesonide and Staurosporine were both added at a concentration of 2 mM and Budesonide also was added as a 1:10 titration, starting at 200 μM, to achieve dose-response. After an 18-24 hour incubation at 37° C., 95% humidity, and 5% CO2, 1 μL of 5× CellTiter-Fluor non-lytic cell viability assay reagent (Promega, Madison, Wis.) was added into the each well of the plates. The plates were then incubated for 30 minutes at room temperature before they were read on a ViewLux plate imager (Perkin Elmer, Waltham, Mass.) using an excitation wavelength of 405 nm and an emission wavelength of 525 nm.
A cell based reporter assay approach was used for the identification of agents that could inhibit Nrf2 mediated gene expression (FIG. 1). A549-ARE-luciferase cells express the luciferase gene driven by a minimal promoter and an enhancer element containing an NRF2 binding site (Antioxidant Response Element, ARE).
as §1

SMILES	IC50 [1] [µM]	IC50 [2] [µM]
O=C(Nc1ncc(Cc2ccc(C(F)(F)F)cc2)s1)c1cccc(-c2ccccc2)c1 [Compound 59]	> 25	5 to 25
Cc1ccccc1C(=O)N1CCc2cc(-c3nc(NC(=O)CC4CCN(C(=O)OC(C)(C)C)CC4)sc3C)ccc21 [Compound 60, tert-butyl 4-(2-((5-methyl-4-(1-(2-methylbenzoyl)indolin-5-yl)thiazol-2-yl)amino)-2-oxoethyl)piperidine-1-carboxylate]	< 5	< 5
O=C(Nc1ncc(Cc2ccc(C(F)(F)F)cc2)s1)c1cccc(-c2ccccc2)n1 [Compound 61]	> 25	< 5
O=C(Cc1ccccc1)Nc1cccc(-c2ccc(N3CCCCC3)cc2)n1 [Compound 63]	> 25	> 25
CNc1ccc(-c2cccc(NC(=O)Cc3ccccc3)n2)cc1 [Compound 64, N-(6-(4-(methylamino)phenyl)pyridin-2-yl)-2-phenylacetamide]	> 25	5 to 25
Cc1ccccc1C(=O)N1CCc2cc(-c3cccc(N4CCOCC4)n3)ccc21 [Compound 65]	5 to 25	5 to 25
Cc1ccccc1C(=O)N1CCc2cc(-c3nc(NC(=O)CN4CCCCC4)sc3C)ccc21 [Compound 66]	5 to 25	5 to 25
Cc1cnc(NC(=O)c2ccc(-c3cccc([N+](=O)[O-])c3)o2)s1 [Compound 67]	> 25	5 to 25
Cc1ccccc1C(=O)N(C)c1ccc(-c2cccc(NC(=O)Cc3ccccc3)n2)cc1 [Compound 68]	5 to 25	5 to 25
Cc1ccccc1C(=O)N1CCc2cc(-c3nc(NC(=O)CN4CCN(C(=O)OC(C)(C)C)CC4)sc3C)ccc21 [Compound 69, tert-butyl 4-(2-((5-methyl-4-(1-(2-methylbenzoyl)indolin-5-yl)thiazol-2-yl)amino)-2-oxoethyl)piperazine-1-carboxylate]	< 5	< 5
Cc1ccccc1C(=O)N1CCc2cc(-c3nc(NC(=O)CN4CCNCC4)sc3C)ccc21 [Compound 70, N-(5-methyl-4-(1-(2-methylbenzoyl)indolin-5-yl)thiazol-2-yl)-2-(piperazin-1-yl)acetamide]	> 25	> 25
Cc1ccccc1C(=O)Nc1ccc(-c2cccc(NC(=O)Cc3ccccc3)n2)cc1 [Compound 71]	> 25	5 to 25
Cc1ccccc1C(=O)N1CCc2cc(-c3nc(NC(=O)CN4CCN(C)CC4)sc3C)ccc21 [Compound 72]	5 to 25	> 25
Cc1ccccc1C(=O)N1CCc2cc(-c3nc(NC(=O)CC4CCNCC4)sc3C)ccc21 [Compound 73]	5 to 25	> 25
O=C(CCc1ccccc1)Nc1ncc(Cc2ccc(C(F)(F)F)cc2)s1 [Compound 74]	> 25	> 25
Cc1ccccc1C(=O)N1CCc2cc(-c3nc(NC(=O)CC4CCN(C)CC4)sc3C)ccc21 [Compound 75]	5 to 25	5 to 25
Cc1ccccc1C(=O)n1ccc2cc(-c3cccc(NC(=O)Cc4ccccc4)n3)cnc21 [Compound 76]	> 25	5 to 25
Cc1ccccc1C(=O)N1CCc2cc(-c3nc(NC(=O)CN4CCOCC4)sc3C)ccc21 [Compound 77]	5 to 25	5 to 25
O=C(Cc1ccccc1)Nc1cccc(-c2ccc(N3CCOCC3)cc2)n1 [Compound 78]	> 25	> 25
Cc1ccccc1C(=O)N1CCc2cc(-c3nc(NC(=O)CC4CCCCC4)sc3C)ccc21 [Compound 79]	5 to 25	< 5
Nc1ccc(-c2cccc(NC(=O)Cc3ccccc3)n2)cc1 [Compound 80, N-(6-(4-aminophenyl)pyridin-2-yl)-2-phenylacetamide]	> 25	> 25
O=C(Nc1ncc(CN2CCOCC2)s1)c1ccc(-c2cccc([N+](=O)[O-])c2)o1 [Compound 81]	5 to 25	5 to 25
O=C(Nc1ncc(-c2ccccc2)s1)c1ccc(-c2cccc([N+](=O)[O-])c2)o1 [Compound 82]	> 25	5 to 25

SMILES	IC50 [1] [µM]	IC50 [2] [µM]
O=C(Nc1ncc(Cc2ccc(C(F)(F)F)cc2)s1)c1ccc(-c2ccccc2)s1 [Compound 83]	> 25	> 25
Cc1ccccc1C(=O)N1CCc2cc(-c3nc(NC(=O)CC4CCOCC4)sc3C)ccc21 [Compound 84]	5 to 25	5 to 25
O=C(Nc1nc(Cc2ccccc2)cs1)c1ccc(-c2cccc([N+](=O)[O-])c2)o1 [Compound 85]	> 25	5 to 25
O=C(Nc1ncc(Cc2ccc(C(F)(F)F)cc2)s1)c1cnc(-c2ccccc2)o1 [Compound 86]	5 to 25	5 to 25
O=C(Nc1ncc(CN2CCCCC2)s1)c1ccc(-c2cccc([N+](=O)[O-])c2)o1 [Compound 87]	> 25	> 25
O=C(Cc1ccccc1)Nc1cccc(-c2cnc3[nH]ccc3c2)n1 [Compound 88, N-(6-(1H-pyrrolo[2,3-b]pyridin-5-yl)pyridin-2-yl)-2-phenylacetamide]	> 25	5 to 25
O=C(O)c1ccc(CN2CCc3ccccc3C2)cc1 [Compound 90, 4-((3,4-dihydroisoquinolin-2(1H)-yl)methyl)benzoic acid]	> 25	> 25
O=C(Cc1ccccc1)Nc1cccc(-c2ccc3[nH]ncc3c2)n1 [Compound 91, N-(6-(1H-indazol-5-yl)pyridin-2-yl)-2-phenylacetamide]	> 25	5 to 25
O=C(Cc1ccccc1)Nc1cccc(-c2ccc3[nH]c(-c4ccccc4)nc3c2)n1 [Compound 92]	> 25	5 to 25
Cc1ccccc1C(=O)N1CCc2cc(N3CCC(N)C3)ccc21 (centres unmarked) [Compound 93, (5-(3-aminopyrrolidin-1-yl)indolin-1-yl)(o-tolyl)methanone]	> 25	5 to 25
Cc1ccccc1C(=O)N1CCc2cc(N3CCCC(N)C3)ccc21 (centres unmarked) [Compound 94, (5-(3-aminopiperidin-1-yl)indolin-1-yl)(o-tolyl)methanone]	> 25	> 25
Cc1ccccc1C(=O)n1ncc2cc(-c3cccc(NC(=O)Cc4ccccc4)n3)ccc21 [Compound 95]	5 to 25	< 5
Cc1ccccc1C(=O)N1CCc2cc(N3CCC(NC(=O)Cc4ccccc4)C3)ccc21 (centres unmarked) [Compound 96]	5 to 25	5 to 25
Cc1ccccc1C(=O)N1CCc2cc(N3CCCC(NC(=O)Cc4ccccc4)C3)ccc21 (centres unmarked) [Compound 97]	5 to 25	5 to 25
O=C(Nc1ncc(Cc2ccc(C(F)(F)F)cc2)s1)c1ccc(Br)o1 [Compound 98]	5 to 25	5 to 25
O=C(Nc1ncc(Cc2ccc(C(F)(F)F)cc2)s1)c1cnc(-c2ccccc2)s1 [Compound 99]	> 25	5 to 25
Cc1ccccc1C(=O)N1CCc2cc(-n3cc(NC(=O)Cc4ccccc4)cn3)ccc21 [Compound 100]	5 to 25	5 to 25
Cc1ccccc1C(=O)N1CCc2cc(-c3ccc(NC(=O)Cc4ccccc4)cn3)ccc21 [Compound 101]	5 to 25	5 to 25
Cc1ccccc1C(=O)N1CCc2cc(-c3ccnc(NC(=O)Cc4ccccc4)n3)ccc21 [Compound 102]	> 25	5 to 25
O=C(NC1CCCN(Cc2ccccc2)C1)c1ccc(-c2cccc([N+](=O)[O-])c2)o1 (centres unmarked) [Compound 103]	> 25	> 25
Cc1ccccc1C(=O)N1CCc2cc(-c3cncc(NC(=O)Cc4ccccc4)n3)ccc21 [Compound 104]	5 to 25	< 5
O=C(Cc1ccccc1)Nc1cncc(Cl)n1 [Compound 105, N-(6-chloropyrazin-2-yl)-2-phenylacetamide]	> 25	> 25
O=C(Cc1ccccc1)Nc1ccc(Cl)nc1 [Compound 106, N-(6-chloropyridin-3-yl)-2-phenylacetamide]	> 25	> 25
